{"source": "paper PMC7933930", "about": "“Development of a small molecule that corrects misfolding and increases secretion of Z α1‐antitrypsin” (EMBO Molecular Medicine, 2021)", "key": {"[1]": {"tested_on": "Z α1‐antitrypsin polymers", "experiment": "Liver polymer load in Z α1‐antitrypsin transgenic mice (2C1 immunohistochemistry)", "type": "in vivo, mouse", "details": "100 mg/kg three times a day for 20 days, versus vehicle", "method": "Since GSK716 blocks polymer formation in cells, we explored the effect of dosing GSK716 on liver polymer levels. […] GSK716 was dosed at 100 mg/kg three times a day for 20 days. […] Liver polymer levels were investigated by staining with 2C1 anti‐polymer monoclonal antibody and were scored blind by a pathologist or by quantification using an algorithm to measure all areas of positive staining (Fig EV1). There was no difference observed in total liver polymer load when assessed by manual or quantitative scoring (Fig 6B and C). There was no significant fibrosis in any of the liver sections. Intrahepatic α1‐antitrypsin was also assessed by ELISA. […] Treatment with GSK716 increased the monomer measured in liver homogenate by approx. fourfold in keeping with the changes seen in blood.\nFormalin‐fixed, paraffin‐embedded livers from all mice were sectioned and stained with haematoxylin and eosin (H&E) and periodic acid Schiff (PAS) with diastase to examine tissue quality and the presence of diastase‐resistant polymer inclusions, respectively. […] Representative sections of liver from each mouse were blindly evaluated by a Board‐Certified Veterinary Pathologist and ranked in order of polymer content. A semi‐automated image analysis solution was developed to quantify total polymer content (Fig EV1). […]"}, "Cannabinoid CB1": {"biological_target": "Cannabinoid CB1 (Homo sapiens, UniProt P21554)", "sequence (P21554 whole entry)": "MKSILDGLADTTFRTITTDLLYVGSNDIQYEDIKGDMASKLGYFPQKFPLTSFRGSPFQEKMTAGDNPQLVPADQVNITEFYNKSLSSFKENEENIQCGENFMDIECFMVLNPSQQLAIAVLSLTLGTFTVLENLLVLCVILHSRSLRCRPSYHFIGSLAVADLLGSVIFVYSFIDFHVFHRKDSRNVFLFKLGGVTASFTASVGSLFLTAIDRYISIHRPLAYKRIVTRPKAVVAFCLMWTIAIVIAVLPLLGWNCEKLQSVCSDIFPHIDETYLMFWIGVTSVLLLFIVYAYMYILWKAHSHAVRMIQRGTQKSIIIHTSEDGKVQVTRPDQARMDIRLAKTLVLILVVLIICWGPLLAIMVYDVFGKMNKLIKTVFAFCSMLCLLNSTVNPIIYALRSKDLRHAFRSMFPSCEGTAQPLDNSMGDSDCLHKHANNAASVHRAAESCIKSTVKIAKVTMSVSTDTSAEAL", "experiment": "Off‐target panel: Cannabinoid CB1 (DRX)", "type": "cell-based", "method": "(§1) GSK716 selectivity and PK properties were profiled in order to investigate the suitability of GSK716 for progression into in vivo studies and the potential for taking it forward as a clinical candidate for testing in humans. Since GSK716 results in loss of inhibitory activity of α1‐antitrypsin, the effect of the compound was assessed on other closely related serpins. […] Furthermore, there were no off‐target effects in a panel of assays considered predictive of known safety liabilities that precluded further development of GSK716 (Table EV1)."}, "Adrenergic α1B": {"biological_target": "Adrenergic α1B (Homo sapiens, UniProt P35368)", "sequence (P35368 whole entry)": "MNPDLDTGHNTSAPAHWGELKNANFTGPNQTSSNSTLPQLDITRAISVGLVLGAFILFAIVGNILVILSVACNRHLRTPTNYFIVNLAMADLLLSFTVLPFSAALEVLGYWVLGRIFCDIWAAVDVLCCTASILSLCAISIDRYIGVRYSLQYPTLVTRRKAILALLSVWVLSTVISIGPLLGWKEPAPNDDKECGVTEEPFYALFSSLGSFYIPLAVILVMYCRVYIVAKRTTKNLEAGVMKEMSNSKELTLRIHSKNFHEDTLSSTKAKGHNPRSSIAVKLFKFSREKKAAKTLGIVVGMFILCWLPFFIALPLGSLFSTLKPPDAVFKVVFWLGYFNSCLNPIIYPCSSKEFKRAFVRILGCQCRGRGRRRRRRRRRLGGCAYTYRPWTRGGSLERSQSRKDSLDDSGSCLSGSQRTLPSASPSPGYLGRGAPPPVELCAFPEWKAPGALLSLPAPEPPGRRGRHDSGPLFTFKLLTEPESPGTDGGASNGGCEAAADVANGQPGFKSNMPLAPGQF", "experiment": "Off‐target panel: Adrenergic α1B", "type": "cell-based", "method": "as §1"}, "Dopamine D1": {"biological_target": "Dopamine D1 (Homo sapiens, UniProt P21728)", "sequence (P21728 whole entry)": "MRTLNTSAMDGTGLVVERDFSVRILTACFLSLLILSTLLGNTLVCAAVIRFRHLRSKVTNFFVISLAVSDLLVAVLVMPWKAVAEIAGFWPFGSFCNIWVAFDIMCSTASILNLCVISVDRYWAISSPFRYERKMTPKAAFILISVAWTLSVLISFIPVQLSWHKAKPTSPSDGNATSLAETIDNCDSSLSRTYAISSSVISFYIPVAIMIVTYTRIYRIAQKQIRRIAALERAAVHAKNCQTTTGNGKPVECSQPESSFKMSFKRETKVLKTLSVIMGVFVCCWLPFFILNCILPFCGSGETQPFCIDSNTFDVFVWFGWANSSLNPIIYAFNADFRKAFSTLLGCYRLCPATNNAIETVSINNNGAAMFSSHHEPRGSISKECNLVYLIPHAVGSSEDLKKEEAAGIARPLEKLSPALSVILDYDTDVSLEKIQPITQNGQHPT", "experiment": "Off‐target panel: Dopamine D1", "type": "cell-based", "method": "as §1"}, "PDE3A": {"biological_target": "PDE3A (Homo sapiens, UniProt Q14432)", "sequence (Q14432 whole entry, species assumed)": "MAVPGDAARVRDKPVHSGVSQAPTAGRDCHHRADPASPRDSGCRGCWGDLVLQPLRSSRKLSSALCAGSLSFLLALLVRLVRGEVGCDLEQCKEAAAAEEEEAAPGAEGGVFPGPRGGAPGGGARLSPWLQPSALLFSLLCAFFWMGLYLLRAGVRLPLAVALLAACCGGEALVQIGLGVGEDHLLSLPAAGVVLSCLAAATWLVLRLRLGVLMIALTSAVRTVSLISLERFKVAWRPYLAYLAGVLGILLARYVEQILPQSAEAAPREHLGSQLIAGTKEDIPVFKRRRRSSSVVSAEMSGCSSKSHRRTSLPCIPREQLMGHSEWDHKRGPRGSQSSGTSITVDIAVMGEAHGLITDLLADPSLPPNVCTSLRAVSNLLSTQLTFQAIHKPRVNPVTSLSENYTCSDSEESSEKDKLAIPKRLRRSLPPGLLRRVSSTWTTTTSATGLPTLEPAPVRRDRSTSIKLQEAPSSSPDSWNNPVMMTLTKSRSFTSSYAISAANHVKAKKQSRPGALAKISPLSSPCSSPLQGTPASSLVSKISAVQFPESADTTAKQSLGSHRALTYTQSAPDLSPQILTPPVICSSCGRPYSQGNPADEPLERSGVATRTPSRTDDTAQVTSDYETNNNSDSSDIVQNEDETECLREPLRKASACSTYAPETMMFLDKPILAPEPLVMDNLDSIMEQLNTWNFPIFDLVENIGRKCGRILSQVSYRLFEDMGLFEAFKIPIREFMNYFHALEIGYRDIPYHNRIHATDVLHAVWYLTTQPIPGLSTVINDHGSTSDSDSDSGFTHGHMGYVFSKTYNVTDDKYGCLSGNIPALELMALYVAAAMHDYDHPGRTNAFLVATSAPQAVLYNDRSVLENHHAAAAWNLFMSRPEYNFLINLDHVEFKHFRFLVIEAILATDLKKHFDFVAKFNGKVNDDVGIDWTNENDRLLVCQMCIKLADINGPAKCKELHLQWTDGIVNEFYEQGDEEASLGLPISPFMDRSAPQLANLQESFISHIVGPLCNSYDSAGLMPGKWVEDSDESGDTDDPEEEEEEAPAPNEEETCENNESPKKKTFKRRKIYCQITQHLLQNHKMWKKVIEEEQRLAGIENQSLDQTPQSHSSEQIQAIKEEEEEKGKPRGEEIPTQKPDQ", "experiment": "Off‐target panel: PDE3A", "type": "biochemical", "details": "Inhibition, read-out: Mean (PXC50)", "method": "as §1"}, "P-gp (MDR1)": {"tested_on": "P-gp (MDR1)", "experiment": "Permeability in MDR1‐MDCK cells with pgp inhibitor", "type": "in vitro ADME", "details": "dog", "method": "Permeability in MDR1‐MDCK cells in the presence of pgp inhibitor GF120918 was high at 248 and 240 nm/s for the apical to basal and basal to apical directions, respectively (N53531‐23 for DI).\nMDR1‐MDCK cells were used between passage numbers 6–30. Cells were seeded onto Millipore Multiscreen Transwell plates at 3.4 × 10^5 cells/cm^2. The cells were cultured in DMEM and media was changed on day 3. On day 4 the permeability study was performed. Cell culture and assay incubations were carried out at 37°C in an atmosphere of 5% v/v CO2 with a relative humidity of 95%. On the day of the assay, the monolayers were prepared by rinsing both apical and basolateral surfaces twice with Hanks Balanced Salt Solution (HBSS) at the desired pH warmed to 37°C. Cells were then incubated with HBSS at the desired pH in both apical and basolateral compartments for 40 min to stabilise physiological parameters. Where applicable, a P‐gp inhibitor (elacridar, 2 µM) was included on both sides of the monolayer for the equilibration period. For assessment of apical‐basolateral permeability, HBSS was removed from the apical compartment and replaced with test compound dosing solution. The apical compartment insert was then placed into a companion plate containing fresh buffer (containing 0.5% v/v DMSO or, where applicable, a P‐gp inhibitor, maintaining a 0.5% v/v DMSO concentration). […]"}, "human hepatocytes": {"tested_on": "human hepatocytes", "experiment": "Hepatocyte clearance, human", "type": "in vitro ADME", "method": "Williams E media supplemented with 2 mM L‐glutamine and 25 mM HEPES and test compound (final compound concentration 0.5 µM; final DMSO concentration 0.25% v/v) were preincubated at 37°C prior to the addition of a suspension of cryopreserved pooled hepatocytes (final cell density 0.5 × 10^6 viable cells/ml) to initiate the reaction. The final incubation volume was 500 µl. The reactions were stopped by transferring 50 µl of incubate to 100 µl acetonitrile containing internal standard at the appropriate time points (0, 5, 10, 20, 40 and 60 min, 0, 10, 20, 40, 60 and 120 min or 0, 20, 40, 60, 120 and 240 min). The control (lysed cells or vehicle) was incubated for 60, 120 or 240 min only. The termination plates were centrifuged at 2,500 rpm at 4°C for 30 min to precipitate the protein. Following protein precipitation, the sample supernatants were analysed by LC‐MS/MS. From a plot of loge peak area ratio (compound peak area/internal standard peak area) against time, the gradient of the line was determined and half‐life (t½) and intrinsic clearance (CLint) were calculated."}}, "note": "Read-outs that look alike come from different tables or passages of the source."}
{"compound": "CCC[C@@H](NC(=O)c1cccc2c1CC(=O)N2)[C@@H](O)c1cccc(F)c1C", "note": "[GSK716]", "values": [{"measurement": "total liver polymer load (manual or quantitative scoring of 2C1 staining)", "setting": "[1]", "value": "no difference"}, {"measurement": "EC50", "setting": "Cannabinoid CB1", "value": "> 100", "unit": "µM"}, {"measurement": "IC50", "setting": "Adrenergic α1B", "value": "> 25.1", "unit": "µM"}, {"measurement": "IC50", "setting": "Dopamine D1", "value": "> 100", "unit": "µM"}, {"measurement": "IC50", "setting": "PDE3A", "value": "> 100", "unit": "µM"}, {"measurement": "Papp at 60 min", "setting": "P-gp (MDR1); with pgp inhibitor GF120918, read-out: permeability, apical to basal", "value": 24.8, "unit": "×10⁻⁶ cm/s"}, {"measurement": "Papp at 60 min", "setting": "P-gp (MDR1); with pgp inhibitor GF120918, read-out: permeability, basal to apical", "value": 24, "unit": "×10⁻⁶ cm/s"}, {"measurement": "metabolic clearance in human hepatocytes", "setting": "human hepatocytes", "value": 0.31, "unit": "ml/min/g tissue"}]}
